Here are results for eleven compounds from patent US20240209053A1 (Protagonist Therapeutics, Inc., priority 2021, published 2024).

Test [1] addresses T1, ferroportin fused to green fluorescent protein (Mus musculus, UniProt Q9JHI9).
T1 sequence (Q9JHI9 1-570): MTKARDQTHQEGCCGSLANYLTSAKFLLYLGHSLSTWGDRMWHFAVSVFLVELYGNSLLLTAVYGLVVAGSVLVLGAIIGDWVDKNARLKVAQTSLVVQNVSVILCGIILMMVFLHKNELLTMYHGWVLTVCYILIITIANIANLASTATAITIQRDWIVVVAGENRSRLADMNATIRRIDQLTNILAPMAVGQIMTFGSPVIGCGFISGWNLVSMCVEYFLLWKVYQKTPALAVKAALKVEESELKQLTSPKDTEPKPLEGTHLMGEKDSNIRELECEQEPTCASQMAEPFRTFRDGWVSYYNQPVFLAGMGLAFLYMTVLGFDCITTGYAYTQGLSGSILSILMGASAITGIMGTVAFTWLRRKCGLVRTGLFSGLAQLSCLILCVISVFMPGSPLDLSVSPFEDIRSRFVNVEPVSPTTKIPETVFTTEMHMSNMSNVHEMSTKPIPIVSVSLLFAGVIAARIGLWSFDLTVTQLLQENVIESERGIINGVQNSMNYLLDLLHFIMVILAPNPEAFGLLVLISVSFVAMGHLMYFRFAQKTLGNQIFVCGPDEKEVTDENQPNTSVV
Particulars: read-out: EC50 (50% of maximal loss of fluorescence); cells incubated 24 hours; reference preparations of Hep25; cited from earlier work.

In test [2] the target is human ferroportin (SLC40A1) fused in frame with GFP, stably expressed on HEK293 cells (human) (UniProt Q9NP59). The test can be described thus: cell-based or functional assay.
Test [3] deals with T2, human ferroportin (SLC40A1) (Homo sapiens, UniProt Q9NP59).
T2 sequence (Q9NP59 1-571): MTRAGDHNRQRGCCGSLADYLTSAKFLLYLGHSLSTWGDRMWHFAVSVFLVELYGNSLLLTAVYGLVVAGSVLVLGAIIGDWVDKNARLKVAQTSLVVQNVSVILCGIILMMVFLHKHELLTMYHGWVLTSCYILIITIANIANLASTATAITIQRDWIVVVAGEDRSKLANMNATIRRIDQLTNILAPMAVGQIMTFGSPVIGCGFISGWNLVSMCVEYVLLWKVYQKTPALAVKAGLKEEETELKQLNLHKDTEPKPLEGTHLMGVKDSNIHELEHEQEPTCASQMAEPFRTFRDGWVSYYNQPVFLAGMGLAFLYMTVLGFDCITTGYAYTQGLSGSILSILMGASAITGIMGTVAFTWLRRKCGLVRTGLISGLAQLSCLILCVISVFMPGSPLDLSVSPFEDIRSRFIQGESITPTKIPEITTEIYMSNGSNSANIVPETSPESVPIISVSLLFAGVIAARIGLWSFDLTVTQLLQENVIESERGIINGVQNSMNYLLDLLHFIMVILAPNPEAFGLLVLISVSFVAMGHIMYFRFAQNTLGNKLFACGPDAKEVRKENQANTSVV
As to the kind of experiment: FPN activity assay: internalization/degradation of ferroportin-GFP in stably transfected HEK293 cells (decrease in GFP fluorescence). Particulars: compound incubated at least 18 hours. In kind it is cell-based. The essentials: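 HEK293 cells stably expressing human ferroportin C-terminally fused to GFP were exposed to peptides for at least 18 h, at most 24 h. Internalization/degradation read as loss of GFP fluorescence; EC50 derived. Retro-inverse mini-hepcidin peptides used as control standards.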

In another test the target is T3, ferroportin (Homo sapiens, UniProt Q9NP59).
T3 sequence (Q9NP59 1-571): T2 sequence (Q9NP59 1-571)
The test can be described thus: T47D cell-based ferroportin internalization assay in presence of 0.5% mouse serum albumin (MSA). The note with it: T47D cells. The essentials: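 T47D cells exposed 1 hr to peptide series (10 points from ~5 μM) premixed 30 min at room temperature with 0.5% mouse serum albumin, then 200 nM AF647-labelled ferroportin-binding peptide for 2 hr. Flow cytometry MFI of live singlets; IC50 by 4-parameter fit.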

The term EC50 denotes the concentration at which the effect is half-maximal. By IC50 is commonly meant the concentration needed to halve the response being measured.

Turning to `CC[C@H](C)[C@@H]1NC(=O)[C@@H](NC(=O)[C@@H](NC(=O)[C@@H]2CCCN2C(=O)[C@H](Cc2ccccc2)NC(=O)[C@H](Cc2c[nH]cn2)NC(=O)[C@@H](NC(=O)[C@@H](N)CC(=O)O)[C@@H](C)O)[C@@H](C)CC)CSSC[C@@H](C(=O)N[C@@H](CCCCN)C(=O)N[C@H](C(=O)O)[C@@H](C)O)NC(=O)[C@@H]2CSSC[C@@H]3NC(=O)[C@@H]4CSSC[C@H](NC(=O)[C@H](Cc5ccccc5)NC1=O)C(=O)N[C@@H](CSSC[C@H](NC(=O)[C@H](CCCCN)NC(=O)[C@H](CO)NC(=O)[C@H](CCCNC(=N)N)NC(=O)[C@H](Cc1c[nH]cn1)NC3=O)C(=O)NCC(=O)N[C@@H](CCSC)C(=O)N2)C(=O)NCC(=O)N4` [Hepcidin, Hy-DTHFPIC(1)IFC(2)C(3)GC(2)C(4)HRSKC(3)GMC(4)C(1)KT-OH], in test [1], the concentration giving a half-maximal response (EC50) is 0.005 to 0.015 µM.

Consider RI-Mini Hepcidin (peptide), for which the Potency EC50 (nM) in test [2] is more than 10000 nM.

Turning to Mini-Hepcidin 1-9 (peptide), the Potency EC50 in test [2] was determined as 0.712 µM. In the case of `CCCCCCCCCCCCCCCC(=O)NCCCCCC(=O)NCCCC[C@H](NC(=O)C[C@H](Cc1ccccc1)NC(=O)[C@@H]1CCC=CCC[C@H](NC(=O)CC(C)C)C(=O)N[C@@H]([C@@H](C)O)C(=O)N[C@@H](Cc2c[nH]cn2)C(=O)N[C@@H](C(c2ccccc2)c2ccccc2)C(=O)N2CCC[C@H]2C(=O)N[C@@H](C)C(=O)N[C@@H]([C@@H](C)CC)C(=O)N1)C(=O)N(C)[C@H](CCCCN)C(N)=O` [Compd 56], the IC50 in test [3] lay within 0.001 to 0.01 µM; on ferroportin, 0.01 to 0.1 µM. The matching figures for `CCCCCCCCCCCCCCCC(=O)NCCCCCC(=O)NCCCC[C@H](NC(=O)C[C@H](Cc1ccccc1)NC(=O)[C@@H]1CCC=CCC[C@@H](NC(=O)CC(C)C)C(=O)N[C@@H]([C@@H](C)O)C(=O)N[C@@H](Cc2c[nH]cn2)C(=O)N[C@@H](C(c2ccccc2)c2ccccc2)C(=O)N2CCC[C@H]2C(=O)N[C@@H](C)C(=O)N[C@@H]([C@@H](C)CC)C(=O)N1)C(=O)N[C@H](CCCCN)C(N)=O` [Compd 68]: 0.01 to 0.1 µM and 0.1 to 0.5 µM. Take `CCCCCCCCCCCCCCCC(=O)NCCCCCC(=O)NCCCC[C@H](NC(=O)C[C@H](Cc1ccccc1)NC(=O)[C@@H]1CCC=CCCC[C@@H](NC(=O)CC(C)C)C(=O)N[C@@H]([C@@H](C)O)C(=O)N[C@@H](Cc2c[nH]cn2)C(=O)N[C@@H](C(c2ccccc2)c2ccccc2)C(=O)N2CCC[C@H]2C(=O)N[C@@H](C)C(=O)N[C@@H]([C@@H](C)CC)C(=O)N1)C(=O)N[C@H](CCCCN)C(N)=O` [Compd 69]: the IC50 in test [3] was 0.001 to 0.01 µM; on ferroportin it was more than 0.5 µM. Regarding `CCCCCCCCCCCCCCCC(=O)NCCCCCC(=O)NCCCC[C@H](NC(=O)C[C@H](Cc1ccccc1)NC(=O)[C@@H]1CCC=CCC[C@H](NC(=O)CC(C)C)C(=O)N[C@@H]([C@@H](C)O)C(=O)N[C@@H](Cc2c[nH]cn2)C(=O)N[C@@H](C(c2ccccc2)c2ccccc2)C(=O)N2CCC[C@H]2C(=O)N[C@@H](C)C(=O)N[C@@H]([C@@H](C)CC)C(=O)N1)C(=O)N[C@H](CCCCN)C(N)=O` [Peptide ID #16, Isovaleric Acid-[Ala(2)]-T-H-[Dpa]-P-A-I-[Ala(2)]-[bhPhe]-[Lys(Ahx_Palm)]-[(D)Lys]-NH2], the figures for the half-inhibitory concentration (IC50) (in test [3]; at ferroportin) were 0.001 to 0.01 µM and 0.01 to 0.1 µM, respectively.

In test [2], Hepcidin (ligand) registered a Potency EC50 of 0.034 µM. As to `CCCCCCCCCCCCCCCC(=O)NCCCCCC(=O)NCCCC[C@H](NC(=O)C[C@H](Cc1ccccc1)NC(=O)[C@H]1CCCC=CCC[C@H](NC(=O)CC(C)C)C(=O)N[C@@H]([C@@H](C)O)C(=O)N[C@@H](Cc2c[nH]cn2)C(=O)N[C@@H](C(c2ccccc2)c2ccccc2)C(=O)N2CCC[C@H]2C(=O)N[C@@H](C)C(=O)N[C@@H]([C@@H](C)CC)C(=O)N1)C(=O)N[C@H](CCCCN)C(N)=O` [Compd 75], the 50% inhibitory concentration (IC50) (in test [3]; at ferroportin) was 0.01 to 0.1 µM in each case. For `CCCCCCCCCCCCCCCC(=O)NCCCCCC(=O)NCCCC[C@@H]1NC(=O)[C@H](C)NC(=O)[C@@H]2CCCN2C(=O)[C@H](C(c2ccccc2)c2ccccc2)NC(=O)[C@H](Cc2c[nH]cn2)NC(=O)[C@H]([C@@H](C)O)NC(=O)[C@@H](NC(=O)CC(C)C)CCCC=CCCC[C@@H](C(=O)N[C@H](CC(=O)N[C@H](CCCCN)C(N)=O)Cc2ccccc2)NC1=O` [Compd 34], the half-maximal inhibitory concentration (IC50) (in test [3]; on ferroportin) was 0.001 to 0.01 µM in each case. On to `CCCCCCCCCCCCCCCC(=O)NCCCCCC(=O)NCCCC[C@H](NC(=O)C[C@H](Cc1ccccc1)NC(=O)[C@@H]1CCCC=CCCC[C@@H](NC(=O)CC(C)C)C(=O)N[C@@H]([C@@H](C)O)C(=O)N[C@@H](Cc2c[nH]cn2)C(=O)N[C@@H](C(c2ccccc2)c2ccccc2)C(=O)N2CCC[C@H]2C(=O)N[C@@H](C)C(=O)N[C@@H]([C@@H](C)CC)C(=O)N1)C(=O)N[C@H](CCCCN)C(N)=O` [Compd 70], for which the IC50 in test [3] was in the range of 0.01 to 0.1 µM; on ferroportin it was 0.001 to 0.01 µM.
